In PMC9312958, “A Novel and Selective Dopamine Transporter Inhibitor, (S)-MK-26, Promotes Hippocampal Synaptic Plasticity and Restores Effort-Related Motivational Dysfunctions” (Biomolecules, 2022):

Test system: CA3-CA1 hippocampal synapses
Test: Ex vivo hippocampal slice electrophysiology after i.p. treatment
Assay type: in vivo, rat
Details: 10 mg/kg i.p.
Procedure: All electrophysiological experiments were conducted post mortem. Hippocampal slices (n = 12 animals/group) were prepared 1 h after the pharmacological treatments (animal experiments conducted under BMBWF-66.009/235/V/3b/2018 regulations). Animals underwent a brief sedative exposure to low CO2 inhalation and were immediately afterwards euthanized using a sharp-blade guillotining (DCAP-M, World Precision Instruments, Inc., Sarasota, FL, USA). The brains were removed and transferred to an ice-cold artificial Cerebrospinal Fluid (aCSF) solution containing (in mM): 125 NaCl, 2.5 KCl, 20 NaHCO3, 2.5 CaCl2, 1 MgCl2, 25 D-glucose, 1 NaH2PO4 (pH 7.4). Hippocampi were extracted and cut transversally with a tissue chopper (McIlwain TC752, Campden Instruments LTD., Loughborough, England) to obtain 400 µm-thick slices. Before electrophysiological assays, the slices rested for at least 1 h in a submerged recovery chamber (filled with aCSF) placed in a water bath with the temperature set at 30 °C. […]
Slice recordings were carried out in a submerged chamber receiving 3–4 mL/min of carbogenated aCSF (30 ± 2 °C). Field excitatory postsynaptic potentials (fEPSPs) were recorded using glass pipettes made of pulled capillary-glass obtained from Harvard Apparatus (Harvard Apparatus, GmbH; Hugo Sachs Elektronik, Germany). Evoked fEPSPs were recorded at the CA1 stratum-radiatum layer after electrically stimulating the collateral projections of Schaffer coming from the CA3 region as previously reported. […] Basal synaptic transmission was assessed by the generation of input/output (I/O) curves, resulting from the plotting of the field slope values (output; normalized to maximum) against the presented electrical stimulus intensity (input voltage). […] LTP was determined from the temporal progression of the fEPSP slope values (decaying phase) after LTP induction, normalized to the averaged slope values obtained before LTP-induction (base line values). The data for LTP from all slices were averaged for each animal (2–5 slices per rat were measured and averaged to yield one single value per animal). […]

Compound: [O-][S@@+](Cc1cncs1)C(c1cccc(Cl)c1)c1cccc(Cl)c1 [(S)-MK-26, (S)-5-(((B(3-chlorophenyl)methyl)sulphinyl)methyl)thiazole]
- basal synaptic transmission (I/O curves, fEPSP slopes) (old rats (~20 months), slices 1 h after injection): no effects
- Post-Tetanic Potentiation (1 min after LTP induction) (old rats): comparable to those from the Koliphor/control group
- LTP responses (25 min after LTP induction) (old rats, p = 0.0133): significant enhancement in their LTP responses
